In patent publication US7396848B1, “Neurotrophin production/secretion promoting agent” (Takeda Pharmaceutical Company Limited, priority 2000, dated 2008):

System: BDNF
Experiment: BDNF production/secretion promoting activity in cultured Schwann cells (enzyme immunoassay of culture fluid)
Format: cell-based, SD rats
Conditions: 24 hours, concentrations of 10^−4 M to 10^−8 M, result in words

Structure (SMILES) | BDNF production/secretion promoting activity
COc1ccccc1OCCCc1oc(-n2ccnc2C)nc1-c1ccc(Cl)cc1 [Compound (1), 4-(4-chlorophenyl)-5-[3-(2-methoxyphenoxy)propyl]-2-(2-methyl-1-imidazolyl)oxazole] | excellent

System: not given
Experiment: not given
Conditions: not given

Structure (SMILES) | melting point
CCOC(=O)CCCc1sc(N)nc1-c1ccc(Cl)cc1 [Example 22, ethyl 2-amino-4-(4-chlorophenyl)-5-thiazolebutanoate] | 114 to 115 °C
Cc1nccn1-c1nc(-c2ccc(Cl)cc2)c(CCCCO)s1 [Example 24, 4-(4-chlorophenyl)-2-(2-methyl-1-imidazolyl)-5-thiazolebutanol] | 98 to 99 °C
COc1ccccc1OCCCc1oc(N2CCOCC2)nc1-c1ccc(Cl)cc1 [Example 39, 4-(4-chlorophenyl)-2-(4-morpholinyl)-5-[3-(2-methoxyphenoxy)propyl]oxazole] | 81 to 82 °C
CCOC(=O)C1CCN(c2nc(-c3ccc(Cl)cc3)c(CCCOc3ccccc3OC)o2)CC1 [Example 40, ethyl N-[4-(4-chlorophenyl)-5-[3-(2-methoxyphenoxy)propyl]-2-oxazolyl]isonipecotate] | 80 to 81 °C
COc1ccccc1OCCCc1oc(-n2cnc(-c3ccccc3)c2-c2ccccc2)nc1-c1ccc(Cl)cc1 [Example 42, 4-(4-chlorophenyl)-2-(4,5-diphenyl-1-imidazolyl)-5-[3-(2-methoxyphenoxy)propyl]oxazole] | 118 to 119 °C
Cc1ccccc1OCCCc1oc(-n2ccnc2)nc1-c1ccc(Cl)cc1 [Example 55, 4-(4-chlorophenyl)-2-(1-imidazolyl)-5-[3-(2-methylphenoxy)propyl]oxazole] | 113 to 114 °C
CCc1nccn1-c1nc(-c2ccc(Cl)cc2)c(CCCOc2ccccc2C)o1 [Example 56, 4-(4-chlorophenyl)-2-(2-ethyl-1-imidazolyl)-5-[3-(2-methylphenoxy)propyl]oxazole] | 91 to 92 °C
CCc1nccn1-c1nc(-c2ccc(Cl)cc2)c(CCCOc2ccccc2OC)o1 [Example 57, 4-(4-chlorophenyl)-2-(2-ethyl-1-imidazolyl)-5-[3-(2-methoxyphenoxy)propyl]oxazole] | 78 to 79 °C
Cc1nccn1-c1nc(-c2ccc(Cl)cc2)c(CCCOc2ccccc2O)o1 [Example 61, 4-(4-chlorophenyl)-5-[3-(2-hydroxyphenoxy)propyl]-2-(2-methyl-1-imidazolyl)oxazole] | 110 to 111 °C
CCOC(=O)c1nccn1-c1nc(-c2ccc(Cl)cc2)c(CCCOc2ccccc2OC)o1 [Example 69, ethyl 1-[4-(4-chlorophenyl)-5-[3-(2-methoxyphenoxy)propyl]-2-oxazolyl]imidazole-2-carboxylate] | 90 to 91 °C
Cc1cc(C)n(-c2nc(-c3ccc(Cl)cc3)c(CCCOc3ccccc3C)o2)n1 [Example 72, 4-(4-chlorophenyl)-2-(3,5-dimethyl-1-pyrazolyl)-5-[3-(2-methylphenoxy)propyl]oxazole] | 103 to 104 °C
CCCc1nccn1-c1nc(-c2ccc(Cl)cc2)c(CCCOc2ccccc2OC)o1 [Example 83, 4-(4-chlorophenyl)-5-[3-(2-methoxyphenoxy)propyl]-2-(2-propyl-1-imidazolyl)oxazole] | 89 to 90 °C
CCCCCCCCCCCc1nccn1-c1nc(-c2ccc(Cl)cc2)c(CCCOc2ccccc2OC)o1 [Example 84, 4-(4-chlorophenyl)-5-[3-(2-methoxyphenoxy)propyl]-2-(2-undecyl-1-imidazolyl)oxazole] | 53 to 54 °C
Cc1nccn1-c1nc(-c2ccc(Cl)cc2)c(CCCOc2ccccc2CCCO)o1 [Example 93, 4-(4-chlorophenyl)-5-[3-(2-(3-hydroxypropyl)phenoxy)propyl]-2-(2-methyl-1-imidazolyl)oxazole] | 119 to 120 °C
Cc1nccn1-c1nc(-c2ccc(Cl)cc2)c(CCCOc2ccccc2CCC(=O)O)o1 [Example 94, 3-[2-[3-[4-(4-chlorophenyl)-2-(2-methyl-1-imidazolyl)-5-oxazolyl]propoxy]phenyl]propionic acid] | 184 to 185 °C
Cc1ccccc1OCCCc1sc(-n2ccnc2C)nc1-c1ccc(Cl)cc1 [Example 96, 4-(4-chlorophenyl)-2-(2-methyl-1-imidazolyl)-5-[3-(2-methylphenoxy)propyl]thiazole] | 112 to 113 °C
Cc1nccn1-c1nc(-c2ccc(Cl)s2)c(CCCCO)o1 [Example 99, 4-(5-chloro-2-thienyl)-2-(2-methyl-1-imidazolyl)-5-oxazolebutanol] | 77 to 79 °C
Cc1nccn1-c1nc(-c2ccc(F)cc2)c(CCCCO)o1 [Example 102, 4-(4-fluorophenyl)-2-(2-methyl-1-imidazolyl)-5-oxazolebutanol] | 97 to 98 °C
Cc1cccc(Cl)c1CCCOc1oc(-n2ccnc2C)nc1-c1ccc(Cl)cc1 [Example 109, 5-[3-(2-chloro-6-methylphenyl)propyloxy]-4-(4-chlorophenyl)-2-(2-methyl-1-imidazolyl)oxazole] | 115 to 116 °C
Cc1cc(O)ccc1OCCCc1oc(-n2ccnc2C)nc1-c1ccc(Cl)cc1 [Example 113, 4-[3-[4-(4-chlorophenyl)-2-(2-methyl-1-imidazolyl)-5-oxazolyl]propyloxy]-3-methylphenol] | 175 to 176 °C
COC(=O)CCc1oc(-n2ccnc2C)nc1-c1ccc(C(F)(F)F)cc1 [Example 116, methyl 2-(2-methyl-1-imidazolyl)-4-(4-trifluoromethylphenyl)-5-oxazolepropionate] | 94 to 95 °C
COC(=O)CCc1oc(-n2ccnc2C)nc1-c1ccc(Cl)c(Cl)c1 [Example 117, methyl 4-(3,4-dichlorophenyl)-2-(2-methyl-1-imidazolyl)-5-oxazolepropionate] | 116 to 117 °C
Cc1nccn1-c1nc(-c2ccc(C(F)(F)F)cc2)c(CCCO)o1 [Example 118, 2-(2-methyl-1-imidazolyl)-4-(4-trifluoromethylphenyl)-5-oxazolepropanol] | 127 to 129 °C
Cc1nccn1-c1nc(-c2ccc(Cl)c(Cl)c2)c(CCCO)o1 [Example 119, 4-(3,4-dichlorophenyl)-2-(2-methyl-1-imidazolyl)-5-oxazolepropanol] | 140 to 141 °C

System: NGF
Experiment: NGF production/secretion promoting activity in cultured Schwann cells (enzyme immunoassay of culture fluid)
Format: cell-based, SD rats
Conditions: 24 hours, concentrations of 10^−4 M to 10^−8 M, result in words
Description: Schwann cells were prepared by subjecting the dorsal spinal root ganglion collected from 10 newborn SD rats to enzyme treatment using 0.25% trypsin containing 0.01% deoxyribonuclease (DNase, produced by Sigma), followed by cloning from the cell group obtained. […]
The culture fluid obtained in each run of Reference Example 1A was recovered and assayed for the neurotrophin content therein. […] After washing, 30 μl of 4-methylumbelliferyl-β-D-galactoside (produced by Sigma) (10 μg/μl) was added to the substrate, the reaction was allowed to proceed at room temperature for 4 hours and then terminated by addition of 130 μl of 0.1 M glycine-sodium hydroxide buffer (pH 10.3), and the fluorescent intensity of the 4-methylumbelliferone produced was determined (Ex: 360 nm; Em: 450 nm). The amount of NGF was calculated based on a standard curve and expressed in terms of relative multiplicity in relation to the amount of NGF (control) produced and secreted by cells treated in the same manner without adding the test compound. […]

Structure (SMILES) | NGF production/secretion promoting activity
COc1ccccc1OCCCc1oc(-n2ccnc2C)nc1-c1ccc(Cl)cc1 [Compound (1), 4-(4-chlorophenyl)-5-[3-(2-methoxyphenoxy)propyl]-2-(2-methyl-1-imidazolyl)oxazole] | excellent
